Measured values from patent US9771334B2, “Triketone compound and preparation method and use thereof” (SHANDONG CYNDA CHEMICAL CO., LTD., priority 2013, dated 2017).

What was measured:
Assay in all cases: Herbicidal activity, pot culture method (primary and secondary screening test)
Type in all cases: in vivo
Details in all cases: primary screening, pot culture, 150 g/ha, sprayed at 3-leaf stage, result 15 days later
abutilon theophrasti = system: abutilon theophrasti
Description: (§1) This test example is for describing the herbicidal activity inhibition ratio (%) (the dose is 150 g/ha) of the compound with a structure shown in Formula (I). Primary screening test (pot culture method): The test targets are abutilon theophrasti, digitaria sanguinalis, amaranthus retroflexus, echinochloa crusgalli, eclipta prostrata and setaria viridis. Take flowerpots with an inner diameter of 6 cm, put composite soil (vegetable garden soil:seedling matrix=1:2, v/v) into them till 3⁄4 of flowerpot height, directly sow the above six weed targets (budding rate>85%), cover them with 0.2 cm thick soil, and keep them for future use when the weeds grow to 3-leaf stage. Each compound is dissolved in N,N-dimethylformamide at a dose of 150 g/ha and diluted with distilled water into a 0.2 g/L solution. The solution is sprayed through an automatic spray tower. After the solution on weed leaves is aired dry, the flowerpots are moved into a greenhouse for cultivation. The result is investigated 15 days later. By the same method adopted in primary screening test, a secondary screening test is done on some typical compounds, such as: 5, 6, 20, 21, 23, 34, 47, 65, 66, 70 and 91 at a reduced dose, and the test result is compared with mesotrione which is commercially available and has a good herbicidal effect. The test method is same as that adopted in primary screening test. Mesotrione is bought from Hubei […] Chemical Co., Ltd.

amaranthus retroflexus = system: amaranthus retroflexus
Description: as §1

digitaria sanguinalis = system: digitaria sanguinalis
Description: as §1

echinochloa crusgalli = system: echinochloa crusgalli
Description: as §1

eclipta prostrata = system: eclipta prostrata
Description: as §1

setaria viridis = system: setaria viridis
Description: as §1

| SMILES | herbicidal activity inhibition ratio (%), Abutilon theophrasti (abutilon theophrasti) [%] | herbicidal activity inhibition ratio (%), Amaranthus retroflexus (amaranthus retroflexus) [%] | herbicidal activity inhibition ratio (%), Digitaria sanguinalis (digitaria sanguinalis) [%] | herbicidal activity inhibition ratio (%), Echinochloa crusgalli (echinochloa crusgalli) [%] | herbicidal activity inhibition ratio (%), Eclipta prostrata (eclipta prostrata) [%] | herbicidal activity inhibition ratio (%), Setaria viridis (setaria viridis) [%] |
| --- | --- | --- | --- | --- | --- | --- |
| CC1CC(=O)C(C(=O)c2ccc3c(c2)c(=O)n(-c2ccc(Cl)cc2Cl)c(=O)n3C)=C(O)C1 (stereo not drawn) [Compound 64] | 95 | 80 | 60 | 90 | 0 | 93 |
| Cc1ccccc1-n1c(=O)[nH]c2ccc(C(=O)C3=C(O)CC(C)(C)CC3=O)cc2c1=O [Compound 59] | 0 | 30 | 0 | 0 | 25 | 10 |
| Cn1c(=O)n(-c2c(Cl)cccc2Cl)c(=O)c2cc(C(=O)C3=C(O)CCCC3=O)ccc21 [Compound 32] | 80 | 85 | 80 | 80 | 50 | 40 |
| Cn1c(=O)n(-c2ccccc2F)c(=O)c2cc(C(=O)C3=C(O)CC(C)(C)CC3=O)ccc21 [Compound 13] | 100 | 100 | 90 | 90 | 90 | 100 |
| CCCCn1c(=O)n(-c2ccccc2C)c(=O)c2cc(C(=O)C3=C(O)CCCC3=O)ccc21 [Compound 73] | 50 | 30 | 0 | 0 | 0 | 10 |
| Cn1c(=O)n(-c2ccccc2Br)c(=O)c2cc(C(=O)C3=C(O)CC(C)(C)CC3=O)ccc21 [Compound 28] | 100 | 95 | 95 | 85 | 83 | 35 |
| Cn1c(=O)n(-c2cc(Cl)cc(Cl)c2)c(=O)c2cc(C(=O)C3=C(O)CCCC3=O)ccc21 [Compound 7] | 100 | 90 | 70 | 80 | 60 | 80 |
| Cc1ccccc1-n1c(=O)c2cc(C(=O)C3=C(O)CC(C)(C)CC3=O)ccc2n(CC(C)C)c1=O [Compound 76] | 20 | 0 | 0 | 0 | 0 | 10 |
| Cn1c(=O)n(-c2cccc(Cl)c2)c(=O)c2cc(C(=O)C3=C(O)CCCC3=O)ccc21 [Compound 3] | 80 | 100 | 70 | 80 | 80 | 100 |
| Cc1ccccc1-n1c(=O)c2cc(C(=O)C3=C(O)CC(C)(C)CC3=O)ccc2n(Cc2ccccc2)c1=O [Compound 80] | 0 | 0 | 0 | 0 | 0 | 10 |
| Cn1c(=O)n(-c2ccccc2Br)c(=O)c2cc(C(=O)C3=C(O)CCCC3=O)ccc21 [Compound 27] | 83 | 100 | 90 | 90 | 80 | 60 |
| Cc1cccc(-n2c(=O)c3cc(C(=O)C4=C(O)CCCC4=O)ccc3n(C)c2=O)c1 [Compound 17] | 70 | 100 | 75 | 70 | 95 | 100 |
| COc1cccc(Cn2c(=O)n(-c3ccccc3C)c(=O)c3cc(C(=O)C4=C(O)CC(C)(C)CC4=O)ccc32)c1 [Compound 81] | 0 | 0 | 0 | 0 | 0 | 10 |
| Cn1c(=O)n(-c2cc(Cl)cc(Cl)c2)c(=O)c2cc(C(=O)C3=C(O)CC(C)(C)CC3=O)ccc21 [Compound 8] | 0 | 100 | 90 | 75 | 80 | 85 |
| Cc1ccccc1-n1c(=O)c2cc(C(=O)C3=C(O)CCCC3=O)ccc2n(CC(C)C)c1=O [Compound 75] | 90 | 20 | 0 | 0 | 20 | 10 |
| COc1cccc(Cn2c(=O)n(-c3ccccc3C)c(=O)c3cc(C(=O)C4=C(O)CCCC4=O)ccc32)c1 [Compound 84] | 0 | 0 | 25 | 50 | 80 | 10 |
| Cc1cccc(Cl)c1-n1c(=O)c2cc(C(=O)C3=C(O)CC(C)(C)CC3=O)ccc2n(C)c1=O [Compound 96] | 95 | 100 | 30 | 55 | 83 | 95 |
| Cn1c(=O)n(-c2ccc([N+](=O)[O-])cc2)c(=O)c2cc(C(=O)C3=C(O)CCCC3=O)ccc21 [Compound 45] | 60 | 90 | 40 | 50 | 83 | 10 |
